In PubChem BioAssay (NCI):
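These data come from cells grown in 96-well plates and exposed to compound for 48 hours at five concentrations. TGI: concentration producing complete growth inhibition.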

Legend:
Test in all cases: NCI tumour cell line growth inhibition, 48 h
HS 578T breast = system: HS 578T breast
NCI/ADR-RES ovarian = system: NCI/ADR-RES ovarian
PC-3 prostate = system: PC-3 prostate
MALME-3M melanoma = system: MALME-3M melanoma
U251 CNS = system: U251 CNS
HL-60(TB) leukemia = system: HL-60(TB) leukemia
M14 melanoma = system: M14 melanoma
MCF7 breast = system: MCF7 breast
MDA-MB-435 = system: MDA-MB-435
SK-MEL-5 melanoma = system: SK-MEL-5 melanoma
UO-31 renal = system: UO-31 renal
SF-295 CNS = system: SF-295 CNS
SK-MEL-28 melanoma = system: SK-MEL-28 melanoma
EKVX NSCLC = system: EKVX NSCLC
OVCAR-3 ovarian = system: OVCAR-3 ovarian
K-562 leukemia = system: K-562 leukemia
UACC-62 melanoma = system: UACC-62 melanoma
NCI-H23 lung = system: NCI-H23 lung
HCT-116 colon = system: HCT-116 colon
CCRF-CEM leukemia = system: CCRF-CEM leukemia
SW-620 colon = system: SW-620 colon
SNB-19 CNS = system: SNB-19 CNS
NCI-H522 lung = system: NCI-H522 lung
T-47D breast = system: T-47D breast
A498 renal = system: A498 renal
HCT-15 colon = system: HCT-15 colon
HOP-62 NSCLC = system: HOP-62 NSCLC
TK-10 renal = system: TK-10 renal
SR leukemia = system: SR leukemia
MDA-MB-231 breast = system: MDA-MB-231 breast
SNB-75 CNS = system: SNB-75 CNS
KM12 colon = system: KM12 colon
UACC-257 melanoma = system: UACC-257 melanoma
NCI-H460 lung = system: NCI-H460 lung
HT29 colon = system: HT29 colon
RXF 393 renal = system: RXF 393 renal
COLO 205 colon = system: COLO 205 colon
MDA-N = system: MDA-N
HOP-92 NSCLC = system: HOP-92 NSCLC
RPMI-8226 leukemia = system: RPMI-8226 leukemia
OVCAR-5 ovarian = system: OVCAR-5 ovarian
OVCAR-8 ovarian = system: OVCAR-8 ovarian
LOX IMVI melanoma = system: LOX IMVI melanoma
ACHN renal = system: ACHN renal
MOLT-4 leukemia = system: MOLT-4 leukemia
A549 NSCLC = system: A549 NSCLC
SK-MEL-2 melanoma = system: SK-MEL-2 melanoma
NCI-H226 lung = system: NCI-H226 lung
SF-539 CNS = system: SF-539 CNS
IGROV1 ovarian = system: IGROV1 ovarian
HCC-2998 colon = system: HCC-2998 colon
DU-145 prostate = system: DU-145 prostate
SF-268 CNS = system: SF-268 CNS
786-0 renal = system: 786-0 renal
CAKI-1 renal = system: CAKI-1 renal
SK-OV-3 ovarian = system: SK-OV-3 ovarian
SN12C renal = system: SN12C renal
BT-549 breast = system: BT-549 breast
OVCAR-4 ovarian = system: OVCAR-4 ovarian

Measured: TGI

O=C(O)CCC(NC(=O)c1ccc(Nc2nc3cc(C(F)(F)F)ccc3nc2C(=O)O)cc1)C(=O)O (stereo not drawn)
not listed: CAKI-1 renal | SK-OV-3 ovarian | SN12C renal | BT-549 breast | OVCAR-4 ovarian
> 100 µM: all other assays above

COc1ccccc1C(=O)N(C)c1ccc(Cl)c(C(=O)OC(C)C)c1
68.7 µM: KM12 colon
85.7 µM: T-47D breast
94.5 µM: SF-295 CNS
58.3 µM: SK-MEL-5 melanoma
97.7 µM: BT-549 breast
not listed: HL-60(TB) leukemia | K-562 leukemia | HOP-62 NSCLC | SR leukemia | RXF 393 renal
> 100 µM: all other assays above

[N-]=[N+]=Nc1c([N+](=O)[O-])c(=O)n2c3c(cccc13)CCC2
36.1 µM: HT29 colon
34.3 µM: TK-10 renal
3.84 µM: K-562 leukemia
41 µM: IGROV1 ovarian
20.9 µM: COLO 205 colon
5.58 µM: MOLT-4 leukemia
27.9 µM: CAKI-1 renal | MDA-N
34.7 µM: U251 CNS
13.9 µM: SW-620 colon
41.8 µM: EKVX NSCLC
21.5 µM: UACC-257 melanoma
38.7 µM: DU-145 prostate
30.7 µM: PC-3 prostate
25.9 µM: MDA-MB-231 breast | SN12C renal
29.9 µM: UACC-62 melanoma
4.58 µM: NCI-H522 lung
34.4 µM: HCC-2998 colon
16.3 µM: SK-MEL-28 melanoma
21.3 µM: SF-268 CNS
26.3 µM: T-47D breast
30.9 µM: 786-0 renal
30.3 µM: SK-MEL-5 melanoma
5.9 µM: SR leukemia
4.27 µM: MALME-3M melanoma
32.7 µM: BT-549 breast
17.8 µM: HCT-15 colon
45.5 µM: NCI/ADR-RES ovarian
30 µM: HOP-92 NSCLC
31.2 µM: MDA-MB-435 | SK-MEL-2 melanoma
51.9 µM: NCI-H226 lung
50.4 µM: A498 renal
28.9 µM: LOX IMVI melanoma
34.8 µM: KM12 colon
27 µM: MCF7 breast | OVCAR-4 ovarian
52.2 µM: SF-539 CNS
35.1 µM: NCI-H460 lung | OVCAR-8 ovarian
28.4 µM: UO-31 renal
> 84.5 µM: A549 NSCLC
4.98 µM: CCRF-CEM leukemia
31.8 µM: ACHN renal
43.6 µM: NCI-H23 lung
11.5 µM: RPMI-8226 leukemia
30.2 µM: HCT-116 colon | OVCAR-5 ovarian
> 77.3 µM: HS 578T breast
26.2 µM: M14 melanoma
4.56 µM: HL-60(TB) leukemia
38.1 µM: SNB-75 CNS
32.5 µM: OVCAR-3 ovarian
not listed: RXF 393 renal
> 100 µM: all other assays above

CC(=O)c1c2n(n(-c3ccccc3)c1=O)C(=O)c1nccnc1-2
not listed: CCRF-CEM leukemia | HOP-62 NSCLC | TK-10 renal
> 100 µM: all other assays above

NCCCNCCCCN1CC1
> 22.6 µM: M14 melanoma
3.4 µM: SF-539 CNS
> 29.9 µM: SF-268 CNS
4.78 µM: OVCAR-3 ovarian
7.83 µM: RXF 393 renal
4.71 µM: UACC-257 melanoma
> 34.9 µM: PC-3 prostate
1.02 µM: T-47D breast
66.5 µM: HS 578T breast
> 44.5 µM: A549 NSCLC
11.8 µM: LOX IMVI melanoma
1.53 µM: OVCAR-4 ovarian
0.407 µM: CAKI-1 renal
> 55.9 µM: SF-295 CNS
> 20.9 µM: NCI-H226 lung
> 33.2 µM: HCT-15 colon
6.17 µM: DU-145 prostate
11.4 µM: NCI-H522 lung
> 20.1 µM: SK-MEL-28 melanoma
> 28 µM: NCI-H23 lung
> 30.7 µM: KM12 colon
> 37.5 µM: HT29 colon
14.1 µM: HOP-62 NSCLC
4.91 µM: HOP-92 NSCLC
> 21.3 µM: RPMI-8226 leukemia
68.8 µM: UACC-62 melanoma
> 100 µM: MCF7 breast | MDA-MB-435 | UO-31 renal | HCT-116 colon | NCI-H460 lung | MDA-N
> 20.5 µM: BT-549 breast
> 20.7 µM: NCI/ADR-RES ovarian | K-562 leukemia
> 33.8 µM: OVCAR-5 ovarian
> 23.2 µM: TK-10 renal
> 36.2 µM: HCC-2998 colon
4.06 µM: COLO 205 colon
2.14 µM: A498 renal
4.3 µM: SNB-75 CNS
11.7 µM: SK-MEL-5 melanoma
> 26.2 µM: U251 CNS
> 23.8 µM: SNB-19 CNS
16.7 µM: EKVX NSCLC

NC(N)=NCCCC(NC(=O)OCCCCn1ccc(N)nc1=O)C(=O)O (stereo not drawn)
not listed: MALME-3M melanoma | SK-MEL-5 melanoma | NCI-H522 lung | OVCAR-8 ovarian
> 100 µM: all other assays above

CSc1scc2c1/C(=N/NC(N)=O)CCC2
90 µM: HOP-92 NSCLC
73.4 µM: NCI/ADR-RES ovarian
not listed: MALME-3M melanoma | HL-60(TB) leukemia | EKVX NSCLC | NCI-H522 lung | SR leukemia | RXF 393 renal | IGROV1 ovarian
> 100 µM: all other assays above

CC(C)(C)OC(=O)NCC(=O)N1CCN(C(=O)CNC(=O)OC(C)(C)C)CC1
7.12 µM: NCI-H522 lung
39.7 µM: SF-268 CNS
not listed: HS 578T breast | MALME-3M melanoma | SNB-75 CNS | NCI-H460 lung | RXF 393 renal
> 100 µM: all other assays above
